Source: US11220500B2, “Crystalline form of Valbenazine dibesylate” (Apotex Inc., priority 2018, dated 2022)
≈ marks a conversion by molar mass, not a printed value. Structures can show the parent of a compound that is named as a salt. Where two headings read alike, the source gives them in different places.

Assays:
[1] = 24 h
Description: (§1) The solubility of Valbenazine free base, Valbenazine ditosylate and Valbenazine dibesylate were measured in buffer solutions (pH 1.2 to 6.8) in a temperature-controlled water bath at 37° C. with stirring using magnetic stir bars at 325 rpm (rotations per minute). Each Valbenazine sample was weighed and transferred into a 20 mL vial and then 10 mL of buffer was added. The samples were shaken for 1 minute. If all sample dissolved, more sample was added until a saturated solution was obtained. The samples were then equilibrated at 37° C. with stirring using magnetic stir bars at 325 rpm for 24 hours. After equilibration, samples were filtered through 0.45 μm PVDF filters and further diluted with a methanol/water (60/40 v/v) solution. Samples were analyzed by HPLC against known concentrations of standards. The pH values of the solutions were measured after completion of testing.

[2] = physchem; settings: 37 °C, thermodynamic from solid, Solubility expressed as Valbenazine free base
Description: as §1

[3] = Form stability by PXRD of uncapped samples in a 27° C./60% RH stability chamber; assay type: physicochemical
Description: Valbenazine dibesylate Form APO-I can be characterized by a PXRD diffractogram comprising, among other peaks, characteristic peaks, expressed in degrees 2θ (±0.2°), at 6.3°, 9.8° and 15.6°. Preferably, the PXRD diffractogram further comprises at least three peaks, expressed in degrees 2θ (±0.2°), selected from the group consisting of 5.3°, 7.7°, 8.5°, 12.5°, 14.0°, 16.8°, 17.1°, 17.8°, 18.6° and 19.7°. More preferably, the PXRD diffractogram further comprises peaks, expressed in degrees 2θ (±0.2°), at 5.3°, 7.7°, 8.5°, 12.5°, 14.0°, 16.8°, 17.1°, 17.8°, 18.6° and 19.7°.
Data were acquired on a PANanalytical X'Pert Pro MPD diffractometer with fixed divergence slits and an X'Celerator detector. The diffractometer was configured in Bragg-Brentano geometry; data was collected over a 2θ range of 3° to 40° using CuKα radiation at a power of 40 mA and 45 kV. CuKβ radiation was removed using a divergent beam nickel filter. A step size of 0.017°, and a step time of 40 seconds, was used. Raw data were evaluated using X'Pert High Score Plus. Samples were rotated to reduce preferred orientation effects. Samples were lightly ground prior to analysis.

[4] = Comparative solubility of Valbenazine forms in buffer solutions (pH 1.2 to 6.8) at 37° C., HPLC; settings: equilibrated 24 hours
Description: as §1

Compound	Difference of aqueous solubility from that of Valbenazine ditosylate of the approved drug product [1]	Solubility expressed as Valbenazine free base ([1]; pH 1.2)	Solubility expressed as Valbenazine free base ([1]; pH 6.8)	solubility at 24 h ([2]; pH 4.5, aqueous buffer)	Form stability ([3]; open exposure to 27° C./60% RH for at least 5 months)	Change in the crystalline form (PXRD) ([3]; uncapped samples, 27° C./60% RH stability chamber, at least 20 weeks)	Solubility expressed as Valbenazine free base ([1]; pH 4.5)	solubility at 24 h ([2]; pH 1.2, simulated gastric fluid)	Solubility expressed as Valbenazine free base ([4]; buffer pH 1.2, 37° C.)	Solubility expressed as Valbenazine free base ([4]; buffer pH 4.5, 37° C.)	Solubility expressed as Valbenazine free base ([4]; buffer pH 6.8, 37° C.)
COc1cc2c(cc1OC)[C@H]1C[C@@H](OC(=O)[C@@H](N)C(C)C)[C@H](CC(C)C)CN1CC2 [Dibesylate salt, Valbenazine dibesylate]	≤ 10 % units	22.4 mg/mL	8.1 mg/mL	18.5 mg/mL	exhibits form stability	no change in the crystalline form					
COc1cc2c(cc1OC)[C@H]1C[C@@H](OC(=O)[C@@H](N)C(C)C)[C@H](CC(C)C)CN1CC2 [Free base, (2R,3R,11bR)-1,3,4,6,7,11b-hexahydro-9,10-dimethoxy-3-(2-methylpropyl)-2H-benzo[a]quinolizin-2-yl-L-valine ester]			1.2 mg/mL (≈ 2.87 mM)				21.6 mg/mL (≈ 51.6 mM)	21.3 mg/mL (≈ 50.9 mM)			
Valbenazine ditosylate [Ditosylate salt]									20.9 mg/mL	17.7 mg/mL	7.6 mg/mL
